Structures can show the parent of a compound that is named as a salt.
System: Acinetobacter baumannii ATCC17961
Assay: Antimicrobial susceptibility testing: 90% growth inhibitory concentration (IC90) determination
Assay type: cell-based
Details: Acinetobacter baumannii, ATCC17961, 16 h, 90% growth inhibitory concentration against Acinetobacter baumannii ATCC17961, Iso-Sensitest broth, OD 600 nm over 16 h; read-out: ATCC 17961 IC90
In short: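 Twofold serial dilutions (e.g. 10 to 0.0195 μM final) in Iso-Sensitest broth inoculated at ~5×10^5 CFU/mL, incubated at 35±2° C. OD600 read every minute for 16 h; IC90 is the concentration inhibiting 90% of growth during logarithmic phase.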

IC90 [nM]	Compound
327	Cn1c(-c2cn(-c3ccc4[nH]c(CO)cc4n3)nc2C(F)(F)F)cnc1C(=O)Nc1ccc(C(=O)N2CCC(C(=O)N3CC[N+](CCCN)(CC(=O)O)CC3)CC2)c(Cl)c1 [Example 134, 2-[1-(3-aminopropyl)-4-[1-[2-chloro-4-[[1-methyl-5-[1-(2-methylol-1H-pyrrolo[3,2-b]pyridin-5-yl)-3-(trifluoromethyl)pyrazol-4-yl]imidazole-2-carbonyl]amino]benzoyl]isonipecotoyl]piperazin-1-ium-1-yl]acetic acid. 1:1 2,2,2-trifluoroacetate]
393	Cn1c(-c2cn(-c3ccc(N)cc3F)nc2C(F)(F)F)cnc1C(=O)Nc1ccc(C(=O)N2CCC(C(=O)N3CC[N+](CCCN)(CC(=O)O)CC3)CC2)c(Cl)c1 [Example 135, 2-[4-[1-[4-[[5-[1-(4-amino-2-fluoro-phenyl)-3-(trifluoromethyl)pyrazol-4-yl]-1-methyl-imidazole-2-carbonyl]amino]-2-chloro-benzoyl]isonipecotoyl]-1-(3-aminopropyl)piperazin-1-ium-1-yl]acetic acid. 1:1 2,2,2-trifluoroacetate]
334	Cn1c(-c2cn(-c3ccc(N)cc3F)nc2C(F)(F)F)cnc1C(=O)Nc1ccc(C(=O)N2CCN(C(=O)N3CC[N+](CC(=O)O)(CC4CNC4)CC3)CC2)c(Cl)c1 [Example 140, 2-[4-[4-[4-[[5-[1-(4-amino-2-fluoro-phenyl)-3-(trifluoromethyl)pyrazol-4-yl]-1-methyl-imidazole-2-carbonyl]amino]-2-chloro-benzoyl]piperazine-1-carbonyl]-1-(azetidin-3-ylmethyl)piperazin-1-ium-1-yl]acetic acid. 1:1 2,2,2-trifluoroacetate]
242	Cn1c(-c2cn(-c3ccc(N)cc3F)nc2C(F)(F)F)cnc1C(=O)Nc1ccc(C(=O)N2CCN(C(=O)N3CC[N+](CCCN)(CC(=O)O)CC3)CC2)c(Cl)c1 [Example 141, 2-[4-[4-[4-[[5-[1-(4-amino-2-fluoro-phenyl)-3-(trifluoromethyl)pyrazol-4-yl]-1-methyl-imidazole-2-carbonyl]amino]-2-chloro-benzoyl]piperazine-1-carbonyl]-1-(3-aminopropyl)piperazin-1-ium-1-yl]acetic acid. 1:1 2,2,2-trifluoroacetate]
205	Cn1c(-c2cn(-c3ccc4[nH]c(CO)cc4n3)nc2C(F)(F)F)cnc1C(=O)Nc1ccc(C(=O)N2CCN(C(=O)C3CC[N+](CCCN)(CC(=O)O)CC3)CC2)c(Cl)c1 (stereo not shown) [Example 145]

Further lines, the compound ahead of its results:

Compound	IC90 [nM]
Cn1c(-c2cn(-c3ccc(O)cc3F)nc2C(F)(F)F)cnc1C(=O)Nc1ccc(C(=O)N2CCN(C(=O)[C@H]3CC[N@+](CC(=O)O)(CC4CNC4)CC3)CC2)c(F)c1 [Example 136, cis-2-[1-(azetidin-3-ylmethyl)-4-[4-[2-fluoro-4-[[5-[1-(2-fluoro-4-hydroxy-phenyl)-3-(trifluoromethyl)pyrazol-4-yl]-1-methyl-imidazole-2-carbonyl]amino]benzoyl]piperazine-1-carbonyl]piperidin-1-ium-1-yl]acetic acid;formate]	173
Cn1c(-c2cn(-c3ccc(NC[C@H](O)CO)cc3F)nc2C(F)(F)F)cnc1C(=O)Nc1ccc(C(=O)N2CCN(C(=O)[C@H]3CC[N@+](CC(=O)O)(CC4CNC4)CC3)CC2)c(Cl)c1 [Example 137, cis-2-[1-(azetidin-3-ylmethyl)-4-[4-[2-chloro-4-[[5-[1-[4-[[(2S)-2,3-dihydroxypropyl]amino]-2-fluoro-phenyl]-3-(trifluoromethyl)pyrazol-4-yl]-1-methyl-imidazole-2-carbonyl]amino]benzoyl]piperazine-1-carbonyl]piperidin-1-ium-1-yl]acetic acid;formate]	334
Cn1c(-c2cn(-c3ccc4c(ccn4C(C)(C)C(N)=O)n3)nc2C(F)(F)F)cnc1C(=O)Nc1ccc(C(=O)N2CCN(C(=O)[C@H]3CC[N@+](CC(=O)O)(CC4CNC4)CC3)CC2)c(Cl)c1 [Example 138, cis-2-[4-[4-[4-[[5-[1-[1-(2-amino-1,1-dimethyl-2-oxo-ethyl)pyrrolo[3,2-b]pyridin-5-yl]-3-(trifluoromethyl)pyrazol-4-yl]-1-methyl-imidazole-2-carbonyl]amino]-2-chloro-benzoyl]piperazine-1-carbonyl]-1-(azetidin-3-ylmethyl)piperidin-1-ium-1-yl]acetic acid;chloride]	408
Cn1c(-c2cn(-c3cc4[nH]c(C(=O)N5CCOCC5)cc4cn3)nc2C(F)(F)F)cnc1C(=O)Nc1ccc(C(=O)N2CCN(C(=O)[C@H]3CC[N@+](CC(=O)O)(CC4CNC4)CC3)CC2)c(Cl)c1 [Example 139, cis-2-[1-(azetidin-3-ylmethyl)-4-[4-[2-chloro-4-[[1-methyl-5-[1-[2-(morpholine-4-carbonyl)-1H-pyrrolo[3,2-c]pyridin-6-yl]-3-(trifluoromethyl)pyrazol-4-yl]imidazole-2-carbonyl]amino]benzoyl]piperazine-1-carbonyl]piperidin-1-ium-1-yl]acetic acid. 1:1 2,2,2-trifluoroacetate]	172
Cn1c(-c2cn(-c3cc4[nH]c(CCN)cc4cn3)nc2C(F)(F)F)cnc1C(=O)Nc1ccc(C(=O)N2CCN(C(=O)[C@H]3CC[N@+](CC(=O)O)(CC4CNC4)CC3)CC2)c(Cl)c1 [Example 142, cis-2-[4-[4-[4-[[5-[1-[2-(2-aminoethyl)-1H-pyrrolo[3,2-c]pyridin-6-yl]-3-(trifluoromethyl)pyrazol-4-yl]-1-methyl-imidazole-2-carbonyl]amino]-2-chloro-benzoyl]piperazine-1-carbonyl]-1-(azetidin-3-ylmethyl)piperidin-1-ium-1-yl]acetic acid;formate]	69.5
CNC(=O)n1ccc2nc(-n3cc(-c4cnc(C(=O)Nc5ccc(C(=O)N6CCN(C(=O)[C@H]7CC[N@+](CC(=O)O)(CC8CNC8)CC7)CC6)c(Cl)c5)n4C)c(C(F)(F)F)n3)ccc21 [Example 143, cis-2-[1-(azetidin-3-ylmethyl)-4-[4-[2-chloro-4-[[1-methyl-5-[1-[1-(methylcarbamoyl)pyrrolo[3,2-b]pyridin-5-yl]-3-(trifluoromethyl)pyrazol-4-yl]imidazole-2-carbonyl]amino]benzoyl]piperazine-1-carbonyl]piperidin-1-ium-1-yl]acetic acid. 1:1 formate]	682
Cn1c(-c2cn(-c3ccc4[nH]c(CO)cc4n3)nc2C(F)(F)F)cnc1C(=O)Nc1ccc(C(=O)N2CCN(C(=O)N3CC[N+](CC(=O)O)(CC4CNC4)CC3)CC2)c(Cl)c1 [Example 144, 2-[1-(azetidin-3-ylmethyl)-4-[4-[2-chloro-4-[[1-methyl-5-[1-(2-methylol-1H-pyrrolo[3,2-b]pyridin-5-yl)-3-(trifluoromethyl)pyrazol-4-yl]imidazole-2-carbonyl]amino]benzoyl]piperazine-1-carbonyl]piperazin-1-ium-1-yl]acetic acid. 1:1 2,2,2-trifluoroacetate]	269
Cn1c(-c2cn(-c3cc4[nH]cc(C(=O)NCCO)c4cn3)nc2C(F)(F)F)cnc1C(=O)Nc1ccc(C(=O)N2CCN(C(=O)[C@H]3CC[N@+](CC(=O)O)(CC4CNC4)CC3)CC2)c(Cl)c1 [Example 146, cis-2-[1-(azetidin-3-ylmethyl)-4-[4-[2-chloro-4-[[5-[1-[3-(2-hydroxyethylcarbamoyl)-1H-pyrrolo[3,2-c]pyridin-6-yl]-3-(trifluoromethyl)pyrazol-4-yl]-1-methyl-imidazole-2-carbonyl]amino]benzoyl]piperazine-1-carbonyl]piperidin-1-ium-1-yl]acetic acid. 1:1 2,2,2-trifluoroacetate]	311

From patent US20250179066A1, “ZWITTERIONIC ANTIBACTERIAL COMPOUNDS” (Hoffmann-La Roche Inc., priority 2022, published 2025)
